Source: patent US20240238237A1, “CONJUGATED LINOLEIC ACID SUPPLEMENTATION FOR DISEASE TREATMENT” (VIRGINIA TECH INTELLECTUAL PROPERTIES, INC., priority 2021, published 2024)
“Also recorded” adds a separate entry of the source.

What was measured:
[1] = test system: WT, PWS (Snord116m+/p−) and PWS-KO (Snord116m−/p−) mice; assay: Fasting glucose and glucose tolerance test; type: in vivo, mouse; conditions: all genotypes, after 12 weeks diet, vs control diet
Procedure: Mice were food-deprived for 12-15 h during the dark cycle in a cage devoid of bedding material. For the fasting measurement, the tail was snipped (1-2 mm), and blood was collected directly on Care Touch glucose test strips and directly measured using a Care Touch blood glucose monitor (Future Diagnostics USA, Brooklyn, NY, USA). Glucose (pharmaceutical grade dextrose, 2 g/kg in PBS, sterile) was injected intraperitoneally (IP) and tail blood samples were obtained at 15, 30, 60, 90, and 120 min following the injection. Area under the curve was calculated using the formula (((([fasting glucose×7.5]+[15 min glucose×15)+[30 min glucose×22.5])+[60 min glucose×30])+[90 min glucose×30])+[120 min glucose×15]).

[2] = test system: WT, PWS (Snord116m+/p−) and PWS-KO (Snord116m−/p−) mice; assay: Spontaneous wheel running; type: in vivo, mouse; conditions: post-study
Procedure: For the spontaneous/motivated wheel running analysis, mice were placed in wire-bottom cages equipped with computer-monitored running wheels (Mini-mitter, Sunriver, OR, USA) for a total of 4 days, and then returned to their home cages. The first two days were not recorded as these were considered acclimation days, and the last 48 h were used for data collection. Mice had ad lib access to food and water during this time. For the pre-week, regular mouse chow was provided. For the post-week measurements, mice were supplied with their study diet during testing.

[3] = test system: WT, PWS (Snord116m+/p−) and PWS-KO (Snord116m−/p−) mice; assay: Rotarod analysis, Example 1; type: in vivo, mouse; conditions: end of study
Procedure: For rotarod analysis, animals were tested using a Columbus Instruments (Columbus, OH, USA) Economex Rota-Rod apparatus. All mice in the study were given four trials each day during the day (between 11 a.m. and 1 p.m.) for four consecutive days from 0 rpm to a maximum speed of 20 rpm, with an acceleration slope of 2.65%. Animals were tested for a maximum of 5 min of running per test, or until the animals fell off the device. The Economex Rota-Rod apparatus is equipped with a pressure-sensitive landing area so that the time spent on the rotating rod is automatically recorded when the animal falls.
The procedure has been previously described. Animals were given between 10 and 15 min of rest in between trials. Note that there are four days of testing, with each day consisting of four trials. The initial trials on Day 1 use a lane where Applicant placed non-slip bathroom tape to provide a stable environment for the animal to learn the procedure. The non-taped lanes were used for Days 2-4. Days 2-3 serve as acclimation days. Day 4 data were used for analysis.

[4] = test system: WT, PWS (Snord116m+/p−) and PWS-KO (Snord116m−/p−) mice; assay: In vivo plantarflexor torque-frequency and fatigue assays; set-up: species or system mouse
Procedure: The procedures for in vivo muscle testing were recently published. Briefly, at the end of the study, following both running wheel and metabolism measurements, body weight was determined, and mice were anesthetized with isoflurane (VetOne Fluriso, Boise, ID, USA) and placed on the temperature-controlled platform (40° C.) of the contractile apparatus (ASI), as described. The right hindlimb was shaved, hair remover applied (Nair Hair Remover Lotion, Ewing, NJ, USA) for 30 s, cleaned with 2-inch×2-inch gauze and tap water, and swabbed with povidone-iodine (Betadine Solution Swabsticks, Stamford, CT, USA). The knee was clamped so the tibia was 90° to the femur. The foot at 90° to the tibia was secured with clear Transpore surgical tape ([…], St. Paul, MN, USA) to the foot pedal of the Aurora Scientific (ASI: Aurora, ON, Canada) dual-mode servomotor. The mouse tail was taped (M3, St. Paul, MN, USA) loosely to the platform to keep it clear of the foot pedal. In vivo plantarflexor torque-frequency and fatigue assays were determined as described in Hamm et al.. Dynamic Muscle Control (DMC) software controlled the timing and frequency of the stimulations and collection of torque. Peak torque for each muscle contraction was determined using ASI Dynamic Muscle Analysis (DMA) software. Due to the body mass and fat mass reduction of the CLA groups in this study, torque was normalized separately by body mass (g) and the final measure of lean body mass (g).
In vivo plantar-flexor torque-frequency and fatigue curves were analyzed using Graph-Pad Prism 9.2.0. A two-way ANOVA was performed with multiple comparisons across groups. For torque-frequency figures, a nonlinear model was fit using the sigmoidal curve with variable slope.

[5] = test system: C57Bl/6 WT and PWS mice; 129v/J WT and Nhlh2 KO mice; assay: Elevated plus maze anxiety symptoms, Example 2; type: in vivo, mouse
Procedure: Mice were tested, using a pre-post design and an elevated plus maze for anxiety symptoms FIG. 16A. Mice that are anxious generally will spend less time in the open arms, compared to those without anxiety. PWS patients show a number of neurobehavioural traits with the most commonly diagnosed phenotype being anxiety. In this study mice were placed in the middle of a plus-type maze, and entrance, as well as time spent in open or closed arms over a 5 minute period were tested. Mice were tested only once before entering the 12-week feeding stud, and once at the end of the 12-week feeding study. The percent time is reported. The data shown in FIG. 16B-16C show a comparison between pre-week test results, and the two treatment groups for each genotype in the post-week test. As shown in FIGS. 16B and 16C, the percent time in open arms was less for all animals. […] These findings can be translated to treatment of humans with anxiety.

[6] = test system: N2KO (Nhlh2 deletion) and WT mice; assay: Body weight, body fat and lean mass in N2KO mice, Example 3; type: in vivo, mouse
Procedure: In males, incidence of HH is as high as one in 4000, with incidence in females being about 2-5 times lower. It was previously shown that mice containing a mutation of Nhlh2, a neuronal basic-helix-loop-helix transcription factor show a failure of pubertal onset, adult-onset obesity and hypogonadism. These mice are termed N2KO mice. […] In this Example, N2KO and WT mice were treated with about 0.5% CLA for 12 weeks.

[7] = test system: testes of N2KO and WT mice; assay: Testicular histology (H&E), Example 3; type: in vivo, mouse
Description: At the end of the study, numerous body tissues were taken during necropsy, including testes. […] There appeared to be no effect in WT mice.
At the end of the 12-week feeding study with supplemental CLA, mice were euthanized and necropsied. Testicular tissue was removed from the abdominal cavity and placed in 4% paraformaldehyde overnight. The next day, tissue was dehydrated in 70% ethanol and stored at 4 degrees C. until further processing, which included embedding, sectioning and H&E staining.

N2KO mice = conditions: 20% fat diet, refs [13-16]; cited from earlier work

## conjugated linoleic acid [CLA]
[1]
  Fasting glucose: significantly higher; also recorded: significantly increased fasting glucose
[2]
  24 h spontaneous wheel running: non-significant
[3]
  Rotarod ability: not affected
[4]; PWS CLA and PWS-KO CLA vs control diet counterparts
  Resistance to fatigue: lowered
[4]; PWS, normalized to lean body mass
  Plantarflexor torque output, PWS group: lowered torque output
[4]; WT and PWS mice on CLA diet vs most other genotypes and treatments
  Fatigue: greater fatigue
[4]; WT, regardless of normalization method
  Plantarflexor torque output, WT mice: increased torque output
[4]; any group, vs WT baseline
  Muscle function, overall: not detrimental to muscle function
[5]; 12 weeks CLA vs control diet
  Percent time in open arms, 129v/J WT and Nhlh2 KO mice: highly significant improvement
[5]; C57Bl/6 PWS mice, post-week
  Percent time in open arms, PWS mice: numeric improvement
[6]; 12 weeks CLA
  Lean mass, N2KO study: significantly improved
[6]; about 0.5% CLA for 12 weeks
  Body fat, N2KO mice: reduced; also recorded: decreased body fat; also recorded: significant reduction
  Body weight, N2KO mice: reduced body weight; also recorded: improved body weight; also recorded: significant reduction
[7]; 12 weeks CLA diet
  Testicular morphology, WT mice: no effect; also recorded: normal testicular morphology
[7]; 12 weeks CLA diet vs control diet
  Testicular morphology, N2KO mice: improved testicular morphology
[7]; N2KO, histology
  Sperm in N2KO mice fed the CLA diet: apparent presence of sperm in the epididymis
[7]; effect of diet
  Testis size: not influenced
N2KO mice
  Outcomes of CLA treatment of N2KO mice: weight loss, decreased body fat, increased metabolism, muscle mitochondrial biogenesis, and increased exercise performance
